Test results: US5723319A, “Cultured cell line that inducibly expresses the hepatitis B virus genome, and uses thereof for screening antiviral substances” (Avid Therapeutics, Inc., priority 1995, dated 1998)
Read-outs that look alike come from different tables or passages of the source.

Experiments:
HBV (Hep AD38 cells) = test: Inhibition of release of HBV DNA into the extracellular environment, Hep AD38 cells (dot blot); type: cell-based, human hepatitis B virus
Procedure: Samples were analyzed by dot blot hybridization to detect the presence HBV DNA in the cell culture supernatants (Korba and Milman, 1991, supra). Supernatants were mixed with an equal volume of denaturation solution (1M NaOH/10× SSC) and incubated for 20 minutes at room temperature. The denatured supernatant mixture was blotted on a nylon membrane (Amersham, Arlington Heights, Ill.) using a dot blot apparatus (Schleicher and Schuell, Keene, N.H.). Samples were neutralized by washing the membrane with 0.5 ml of 1M Tris, pH 7.2/2M NaCl followed by 0.5 ml of 20× SSC. Filters were then rinsed in 2× SSC, subjected to UV light crosslinking (Stratalinker), and prehybridized in 5× SSC, 5× Denhardt's Reagent, 20 mM NaPO4, pH 6.5, 50% formamide, 1% SDS, and 250 mg/L salmon sperm DNA for 1 hour at 42° C.
A 2.8 Kb fragment corresponding to the HBV sequences of pCMAYW was generated by PCR amplification, and served as a template for the synthesis of [α-^32 P]dCTP labelled hybridization probes by random priming according to the vendor's specifications (Megaprime DNA Labelling System, Amersham). Blots were hybridized with the radioactively labelled probe for sixteen hours at 42° C. The filters were then washed twice in 2× SSC/0.1% SDS at 25° C. for 20 minutes each and twice in 0.2× SSC/0.1% SDS at 65° C. for 20 minutes each. Radioactivity for individual samples was quantitated with a Fuji MacBAS 1000 Phosphorimager.
Cells were seeded in 24 well plates at 4×10^5 cells/well and were grown to 100% confluency (approximately 3 days). At this time (day 0), cells were washed 3 times with PBS and 0.5 ml of medium containing various concentrations of known HBV inhibitors (ddC, 3TC and CDG). For each compound, four different concentrations and a negative control were tested, in the presence or in the absence of tetracycline. Typically, the medium was replaced 24 hours prior to collection with samples being collected four, eight, and twelve days after induction. […]
The samples were evaluated to determine the effective concentration of the inhibitors that inhibited the release of HBV DNA by 50%. […]

HBV (2.2.15 cells) = test: Inhibition of release of HBV DNA into the extracellular environment, 2.2.15 cells (dot blot); type: cell-based, hepatitis B virus
Excerpt: The current state of, the art for the detection of HBV in tissue culture is the HepG2 or 2.2.15 cell line assay (Korba & Milman, Antiviral Research 15: 217-228 1991). This assay uses HepG2 cells (a human hepatoblastoma cell line) stably transfected with DNA from a clone containing two tandemly arranged copies of the HBV genome. […] The 2.2.15 cell line produces HBV at levels sufficient for measurement by conventional detection methods (Aoki-Sef et al., J. Infect. Dis. 164: 843-851 1988; Sells et al., Proc. Natl. Acad. Sci. USA 84: 4641-4644 1988).
Cells were seeded in 24 well plates at 4×10^5 cells/well and were grown to 100% confluency (approximately 3 days). At this time (day 0), cells were washed 3 times with PBS and 0.5 ml of medium containing various concentrations of known HBV inhibitors (ddC, 3TC and CDG). For each compound, four different concentrations and a negative control were tested, in the presence or in the absence of tetracycline. Typically, the medium was replaced 24 hours prior to collection with samples being collected four, eight, and twelve days after induction. Media were clarified by centrifugation and stored at -70° C. for further analysis. The procedure for susceptibility testing in a 96-well format was essentially the same as for the 24 well plate format except that cells were seeded in 96 well plates at 5×10^4 cells/well, 5 concentrations of drug were tested, and the volume of medium used was 100 μl. In addition, samples were removed from the wells for HBV DNA determination either with and without medium changes 24 hours prior to collection.
The samples were evaluated to determine the effective concentration of the inhibitors that inhibited the release of HBV DNA by 50%. This value is referred to as the EC50 for the compound.

[1] = tested on: HBV Dane particles (HepG2 cells); test: Induction of HBV Dane particles, HepG2 cells +/- tetracycline; type: cell-based, hepatitis B virus
Procedure: (§1) For each cell line, two 60 mm plates were seeded with 3×10^6 cells. When the cells reached full confluency, the medium was changed and tetracycline was removed from the medium of one the plates. […] The medium was adjusted to 10% glycerol (by volume) and incubated one hour at 4° C. Dane particles were pelleted by […] centrifugation and resuspended in PBS. The viral capsid was disrupted with 1% NP-40 (Sigma Chemical Co., St Louis, Mo.) and the capsid proteins were digested with proteinase K (50 μg/ml). The viral DNA was analyzed by dot blot hybridization using a radioactively labeled probe specific for HBV DNA.

[2] = tested on: HBV Dane particles (Hep AD38 cells); test: Induction of HBV Dane particles, Hep AD38 cells +/- tetracycline; type: cell-based, human hepatitis B virus
Procedure: as §1

[3] = tested on: HBV Dane particles (2.2.15 cells); test: Induction of HBV Dane particles, 2.2.15 cells +/- tetracycline; type: cell-based, hepatitis B virus
Procedure: as §1

[4] = tested on: HBV DNA intermediates (Hep AD38 cells); test: Southern blot of HBV DNA replicative intermediates (cccDNA, replicative intermediates, core DNA), Hep AD38 cells; type: cell-based, human hepatitis B virus; settings: Hep AD38, presence of tetracycline
Procedure: For each of the Hep AD38, HepG2 and 2.2.15 cell lines, two 60 mm plates were seeded with 3×10^6 cells and allowed to grow as described above. When the cells became confluent, the medium was changed and tetracycline was removed from the medium on one of the plates. After a six day induction period, the medium again was removed and the cells were washed with PBS. Cells were then incubated at 37° C. for 10 minutes with 1 ml lysis buffer (0.5% SDS, 10 mM Tris-HCl, pH 7.5, 10 mM EDTA, 0.15M NaCl). The cell solutions were transferred to 1.5 ml Eppendorf tubes, adjusted to 0.5 M KCl, and incubated on ice for 15 minutes. The lysates were then clarified by high-speed centrifugation for 15 minutes at 4° C., and the supernatants were collected. DNA was isolated from the supernatants by phenol extraction followed by cold ethanol precipitation. Pelleted DNA was resuspended in 40 μl TE buffer.
For each cell line, two 60 mm plates were seeded with 3×10^6 cells. When the cells reached full confluency, the medium was changed and tetracycline was removed from the medium of one of the plates. After a 7 day induction period, the medium was removed and cells were washed with PBS. Cells were lysed by the addition of 0.6 ml of transfection lysis buffer (50 mM Tris, pH 8.0, 1 mM EDTA, 1% NP40) to each plate. The mixture was pipetted thoroughly to ensure complete cell lysis. […]

Nc1ccn([C@H]2CC[C@@H](CO)O2)c(=O)n1 [ddC]
EC50 (HBV (Hep AD38 cells); Hepatitis B virus, HePAD38): 8 µM
EC50 (HBV (2.2.15 cells); Hepatitis B virus): 6 µM

CN(C)C1C(=O)C(C(N)=O)=C(O)C2(O)C(=O)C3=C(O)c4c(O)cccc4C(C)(O)C3CC12 (stereo not shown) [tetracycline]
HBV DNA released (Dane particles) ([1]; HepG2, +Tet, Day 7): 0 CPM/well
HBV DNA released (Dane particles) ([1]; HepG2, +Tet., Day 4): 0 CPM/well
production of HBV Dane particles ([2]; Hep AD38, 0.3 μg/ml of tetracycline): completely inhibits
HBV DNA released (Dane particles) ([2]; Hep AD38, +Tet, Day 7): 0 CPM/well
HBV DNA released (Dane particles) ([2]; Hep AD38, +Tet., Day 4): 0 CPM/well
release of HBV DNA into the extracellular environment ([2]; Hep AD38, grown in the presence of tetracycline): do not release HBV DNA
HBV DNA released (Dane particles) ([3]; 2.2.15, +Tet, Day 7): 1.8 × 10^4 CPM/well
HBV DNA released (Dane particles) ([3]; 2.2.15, +Tet., Day 4): 4 × 10^3 CPM/well
response to the presence or absence of tetracycline with regard to release of HBV DNA into the medium ([3]; 2.2.15, presence or absence of tetracycline): no response
HBV DNA intermediates made [4]: not made

Nc1nc2c(ncn2C2CC(O)C(CO)C2)c(=O)[nH]1 (stereo not shown) [CDG]
EC50 (HBV (Hep AD38 cells)): 0.011 µM
EC50 (HBV (2.2.15 cells)): 0.019 µM

Nc1ccn([C@@H]2CS[C@H](CO)O2)c(=O)n1 [3TC]
EC50 (HBV (Hep AD38 cells); Hepatitis B virus, HePAD38): 0.02 µM
EC50 (HBV (2.2.15 cells); Hepatitis B virus): 0.05 µM
